According to ChEMBL document CHEMBL5055685, “Discovery of the First Potent IDO1/IDO2 Dual Inhibitors: A Promising Strategy for Cancer Immunotherapy” (J Med Chem, 2021):
Active and inactive are the calls of the source. No cut-off for these calls is given here.

What was measured:
[1] = Metabolic stability in dog liver microsomes assessed as rate constant; assay type: ADME, Canis lupus familiaris, Microsome
[2] = Protein binding in ICR mouse plasma assessed as fraction unbound by equilibrium dialysis; assay type: ADME, cell-free
Rattus norvegicus = assay: Toxicity in rat assessed as rat death at […]; assay type: organism-based; conditions: in vivo
HCT-116 [3] = assay: Antitumor immunity in BALB/c mouse xenografted with human HCT-116 cells assessed as increase in CD86 expression in CD11c+ cells by propidium iodide staining based flow cytometry analysis (reference value: 72 %); assay type: functional
HCT-116 [4] = assay: Antitumor immunity in BALB/c mouse xenografted with human HCT-116 cells assessed as early Treg cells in tumor-draining lymph nodes by propidium iodide staining based flow cytometry analysis (reference value: 7.24 %); assay type: functional
HCT-116 [5] = assay: Antitumor immunity in BALB/c mouse xenografted with human HCT-116 cells assessed as late Treg cells in tumor-draining lymph nodes by propidium iodide staining based flow cytometry analysis (reference value: 18.3 %); assay type: functional
HCT-116 [6] = assay: Antitumor immunity in BALB/c mouse xenografted with human HCT-116 cells assessed as induction of apoptosis of CD4+ T-lymphocytes in tumor-draining lymph nodes by propidium iodide staining based flow cytometry analysis (reference value: 21.9 %); assay type: functional
Mus musculus = assay: In vivo inhibition of TDO in BALB/c mouse xenografted with human HCT-116 cells assessed as suppression of TDO expression in tumor by immunohistochemical assay; assay type: functional, organism-based
[7] = target: Tyrosine-protein kinase ABL2 (Homo sapiens) (UniProt P42684); assay: Inhibition of ABL2 (unknown origin) at 1 uM
[8] = target: RAC-alpha serine/threonine-protein kinase (Homo sapiens) (UniProt P31749); assay: Inhibition of AKT1 (unknown origin) at 1 uM
[9] = target: CDK2/Cyclin A2 (Homo sapiens) (UniProt P24941+P20248); assay: Inhibition of CDK2/cyclin-A (unknown origin) at 1 uM; assay type: protein-complex assay
[10] = target: CDK2/Cyclin O (Homo sapiens) (UniProt P24941+P22674); assay: Inhibition of CDK2/cyclin-O (unknown origin) at 1 uM; assay type: protein-complex assay
[11] = target: Serine/threonine-protein kinase DCLK1 (Homo sapiens) (UniProt O15075); assay: Inhibition of DCAMKL1 (unknown origin) at 1 uM
[12] = target: Serine/threonine-protein kinase MRCK gamma (Homo sapiens) (UniProt Q6DT37); assay: Inhibition of DMPK2 (unknown origin) at 1 uM
[13] = target: Dual specificity tyrosine-phosphorylation-regulated kinase 4 (Homo sapiens) (UniProt Q9NR20); assay: Inhibition of DYRK4 (unknown origin) at 1 uM
[14] = target: Ephrin type-A receptor 5 (Homo sapiens) (UniProt P54756); assay: Inhibition of EPHA5 (unknown origin) at 1 uM
[15] = target: Mitogen-activated protein kinase 7 (Homo sapiens) (UniProt Q13164); assay: Inhibition of ERK5 (unknown origin) at 1 uM
[16] = target: Fibroblast growth factor receptor 1 (Homo sapiens) (UniProt P11362); assay: Inhibition of FGFR1 (unknown origin) at 1 uM
[17] = target: Serine/threonine-protein kinase ICK (Homo sapiens) (UniProt Q9UPZ9); assay: Inhibition of LCK2 (unknown origin) at 1 uM
[18] = target: Serine/threonine-protein kinase STK11 (Homo sapiens) (UniProt Q15831); assay: Inhibition of LKB1 (unknown origin) at 1 uM
[19] = target: Serine/threonine-protein kinase 10 (Homo sapiens) (UniProt O94804); assay: Inhibition of LOK (unknown origin) at 1 uM
[20] = target: Dual specificity mitogen-activated protein kinase kinase 5 (Homo sapiens) (UniProt Q13163); assay: Inhibition of MEK5 (unknown origin) at 1 uM
[21] = target: Mitogen-activated protein kinase kinase kinase 2 (Homo sapiens) (UniProt Q9Y2U5); assay: Inhibition of MEKK2 (unknown origin) at 1 uM
[22] = target: Misshapen-like kinase 1 (Homo sapiens) (UniProt Q8N4C8); assay: Inhibition of MINK1 (unknown origin) at 1 uM
[23] = target: Mitogen-activated protein kinase kinase kinase 21 (Homo sapiens) (UniProt Q5TCX8); assay: Inhibition of MLK4 (unknown origin)at 1 uM
[24] = target: Serine/threonine-protein kinase 4 (Homo sapiens) (UniProt Q13043); assay: Inhibition of MST1 (unknown origin) at 1 uM
[25] = target: Mitogen-activated protein kinase 14 (Homo sapiens) (UniProt Q16539); assay: Inhibition of p38alpha (unknown origin) at 1 uM
[26] = target: Ribosomal protein S6 kinase beta-2 (Homo sapiens) (UniProt Q9UBS0); assay: Inhibition of p70S6Kb (unknown origin) at 1 uM
[27] = target: Protein kinase C zeta type (Homo sapiens) (UniProt Q05513); assay: Inhibition of PKCzeta (unknown origin) at 1 uM
[28] = target: cAMP-dependent protein kinase catalytic subunit PRKX (Homo sapiens) (UniProt P51817); assay: Inhibition of PRKX (unknown origin) at 1 uM
[29] = target: Protein-tyrosine kinase 2-beta (Homo sapiens) (UniProt Q14289); assay: Inhibition of PYK2 (unknown origin) at 1 uM
[30] = target: Rho-associated protein kinase 1 (Homo sapiens) (UniProt Q13464); assay: Inhibition of ROCK1 (unknown origin) at 1 uM
[31] = target: Proto-oncogene tyrosine-protein kinase ROS (Homo sapiens) (UniProt P08922); assay: Inhibition of ROS (unknown origin) at 1 uM
[32] = target: Serine/threonine-protein kinase SIK3 (Homo sapiens) (UniProt Q9Y2K2); assay: Inhibition of SIK3 (unknown origin) at 1 uM
[33] = target: SRSF protein kinase 2 (Homo sapiens) (UniProt P78362); assay: Inhibition of SRPK2 (unknown origin) at 1 uM
[34] = target: Mitogen-activated protein kinase kinase kinase 7 (Homo sapiens) (UniProt O43318); assay: Inhibition of TAK1 (unknown origin) at 1 uM
[35] = target: Angiopoietin-1 receptor (Homo sapiens) (UniProt Q02763); assay: Inhibition of TIE2 (unknown origin) at 1 uM
[36] = target: TRAF2 and NCK-interacting protein kinase (Homo sapiens) (UniProt Q9UKE5); assay: Inhibition of TNIK (unknown origin) at 1 uM
[37] = target: Testis-specific serine/threonine-protein kinase 3 (Homo sapiens) (UniProt Q96PN8); assay: Inhibition of TSSK3 (unknown origin) at 1 uM
[38] = target: Tau-tubulin kinase 1 (Homo sapiens) (UniProt Q5TCY1); assay: Inhibition of TTBK1 (unknown origin) at 1 uM
[39] = target: Wee1-like protein kinase (Homo sapiens) (UniProt P30291); assay: Inhibition of WEE1 (unknown origin) at 1 uM
[40] = target: Mitogen-activated protein kinase kinase kinase kinase 2 (Homo sapiens) (UniProt Q12851); assay: Inhibition of GCK (unknown origin) at 1 uM
[41] = target: Serine/threonine-protein kinase OSR1 (Homo sapiens) (UniProt O95747); assay: Inhibition of OSR1 (unknown origin) at 1 uM

Rho-associated protein kinase 1 (Homo sapiens), sequence (Q13464 2-1354 limits assumed): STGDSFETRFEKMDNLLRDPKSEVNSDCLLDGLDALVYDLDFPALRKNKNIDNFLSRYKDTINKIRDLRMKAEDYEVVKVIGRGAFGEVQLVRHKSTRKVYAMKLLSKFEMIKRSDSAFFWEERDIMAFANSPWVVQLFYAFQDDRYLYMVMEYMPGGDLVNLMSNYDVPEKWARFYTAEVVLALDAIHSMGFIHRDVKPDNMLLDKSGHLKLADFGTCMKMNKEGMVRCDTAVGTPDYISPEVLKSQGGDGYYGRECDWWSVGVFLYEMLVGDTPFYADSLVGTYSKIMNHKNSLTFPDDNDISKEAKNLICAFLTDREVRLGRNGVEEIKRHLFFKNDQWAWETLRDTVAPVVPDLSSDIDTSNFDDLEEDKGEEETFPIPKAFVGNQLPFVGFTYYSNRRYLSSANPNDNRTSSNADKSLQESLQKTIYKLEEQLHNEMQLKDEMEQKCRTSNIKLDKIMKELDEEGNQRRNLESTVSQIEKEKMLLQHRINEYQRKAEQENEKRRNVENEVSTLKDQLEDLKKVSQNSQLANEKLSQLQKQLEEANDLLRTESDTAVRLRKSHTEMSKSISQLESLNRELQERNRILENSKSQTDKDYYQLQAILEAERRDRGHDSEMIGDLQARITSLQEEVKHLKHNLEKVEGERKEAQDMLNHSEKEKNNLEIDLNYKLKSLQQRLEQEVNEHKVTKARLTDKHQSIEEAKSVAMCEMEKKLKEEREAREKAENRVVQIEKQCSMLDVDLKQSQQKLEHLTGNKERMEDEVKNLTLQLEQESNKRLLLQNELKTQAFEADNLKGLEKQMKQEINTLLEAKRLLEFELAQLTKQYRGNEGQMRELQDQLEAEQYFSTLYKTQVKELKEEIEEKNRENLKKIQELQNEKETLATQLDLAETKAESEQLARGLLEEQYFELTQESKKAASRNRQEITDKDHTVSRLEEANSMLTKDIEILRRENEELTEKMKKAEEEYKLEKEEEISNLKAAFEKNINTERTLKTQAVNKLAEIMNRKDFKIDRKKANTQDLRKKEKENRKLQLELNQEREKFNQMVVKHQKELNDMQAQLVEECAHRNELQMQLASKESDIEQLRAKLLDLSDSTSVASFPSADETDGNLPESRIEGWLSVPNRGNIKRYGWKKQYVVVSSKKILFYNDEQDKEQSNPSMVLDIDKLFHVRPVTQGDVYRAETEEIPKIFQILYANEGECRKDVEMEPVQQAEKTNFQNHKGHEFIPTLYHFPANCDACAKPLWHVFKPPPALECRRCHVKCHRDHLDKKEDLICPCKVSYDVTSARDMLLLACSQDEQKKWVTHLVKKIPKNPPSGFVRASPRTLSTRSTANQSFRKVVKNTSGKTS
Ephrin type-A receptor 5 (Homo sapiens), sequence (P54756 whole entry): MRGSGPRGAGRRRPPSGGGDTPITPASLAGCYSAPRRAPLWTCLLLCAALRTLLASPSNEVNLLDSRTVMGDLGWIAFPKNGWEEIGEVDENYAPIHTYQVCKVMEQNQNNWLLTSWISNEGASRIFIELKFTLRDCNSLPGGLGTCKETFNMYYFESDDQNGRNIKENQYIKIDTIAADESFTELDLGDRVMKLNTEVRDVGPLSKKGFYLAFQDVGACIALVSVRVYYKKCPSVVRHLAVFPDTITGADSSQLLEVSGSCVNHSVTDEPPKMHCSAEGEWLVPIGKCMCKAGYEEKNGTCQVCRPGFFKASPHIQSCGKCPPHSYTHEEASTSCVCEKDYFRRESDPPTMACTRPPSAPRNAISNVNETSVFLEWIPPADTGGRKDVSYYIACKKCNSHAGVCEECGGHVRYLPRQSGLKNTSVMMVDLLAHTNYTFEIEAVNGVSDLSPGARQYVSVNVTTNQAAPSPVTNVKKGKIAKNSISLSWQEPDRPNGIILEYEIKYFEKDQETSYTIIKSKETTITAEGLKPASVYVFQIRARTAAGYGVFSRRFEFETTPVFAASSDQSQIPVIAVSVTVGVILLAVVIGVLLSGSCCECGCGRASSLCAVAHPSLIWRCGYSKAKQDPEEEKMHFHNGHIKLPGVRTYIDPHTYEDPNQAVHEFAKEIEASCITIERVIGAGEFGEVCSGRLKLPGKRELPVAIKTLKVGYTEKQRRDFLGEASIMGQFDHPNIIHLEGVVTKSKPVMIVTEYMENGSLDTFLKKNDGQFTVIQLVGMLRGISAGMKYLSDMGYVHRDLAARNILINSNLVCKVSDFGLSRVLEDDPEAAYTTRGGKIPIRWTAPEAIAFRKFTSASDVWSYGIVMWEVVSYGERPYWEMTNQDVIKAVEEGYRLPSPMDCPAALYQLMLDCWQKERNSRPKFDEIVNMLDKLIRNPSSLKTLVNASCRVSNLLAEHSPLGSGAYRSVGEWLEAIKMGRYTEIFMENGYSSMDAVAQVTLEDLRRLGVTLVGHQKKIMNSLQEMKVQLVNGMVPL
Dual specificity tyrosine-phosphorylation-regulated kinase 4 (Homo sapiens), sequence (Q9NR20 whole entry): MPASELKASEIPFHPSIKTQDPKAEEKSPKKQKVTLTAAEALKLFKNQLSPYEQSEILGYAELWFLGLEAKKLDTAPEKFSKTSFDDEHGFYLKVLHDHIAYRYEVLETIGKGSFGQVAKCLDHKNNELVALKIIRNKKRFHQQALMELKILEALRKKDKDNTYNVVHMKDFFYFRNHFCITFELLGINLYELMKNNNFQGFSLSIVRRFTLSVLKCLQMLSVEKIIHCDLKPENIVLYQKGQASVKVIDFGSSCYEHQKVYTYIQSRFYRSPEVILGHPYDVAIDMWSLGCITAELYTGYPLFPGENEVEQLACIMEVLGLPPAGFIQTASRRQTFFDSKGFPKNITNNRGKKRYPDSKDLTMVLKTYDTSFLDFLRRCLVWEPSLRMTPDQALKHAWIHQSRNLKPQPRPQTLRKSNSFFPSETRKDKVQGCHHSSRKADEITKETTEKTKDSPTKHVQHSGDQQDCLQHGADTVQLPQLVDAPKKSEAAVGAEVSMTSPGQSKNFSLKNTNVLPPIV
TRAF2 and NCK-interacting protein kinase (Homo sapiens), sequence (Q9UKE5 whole entry, looked up): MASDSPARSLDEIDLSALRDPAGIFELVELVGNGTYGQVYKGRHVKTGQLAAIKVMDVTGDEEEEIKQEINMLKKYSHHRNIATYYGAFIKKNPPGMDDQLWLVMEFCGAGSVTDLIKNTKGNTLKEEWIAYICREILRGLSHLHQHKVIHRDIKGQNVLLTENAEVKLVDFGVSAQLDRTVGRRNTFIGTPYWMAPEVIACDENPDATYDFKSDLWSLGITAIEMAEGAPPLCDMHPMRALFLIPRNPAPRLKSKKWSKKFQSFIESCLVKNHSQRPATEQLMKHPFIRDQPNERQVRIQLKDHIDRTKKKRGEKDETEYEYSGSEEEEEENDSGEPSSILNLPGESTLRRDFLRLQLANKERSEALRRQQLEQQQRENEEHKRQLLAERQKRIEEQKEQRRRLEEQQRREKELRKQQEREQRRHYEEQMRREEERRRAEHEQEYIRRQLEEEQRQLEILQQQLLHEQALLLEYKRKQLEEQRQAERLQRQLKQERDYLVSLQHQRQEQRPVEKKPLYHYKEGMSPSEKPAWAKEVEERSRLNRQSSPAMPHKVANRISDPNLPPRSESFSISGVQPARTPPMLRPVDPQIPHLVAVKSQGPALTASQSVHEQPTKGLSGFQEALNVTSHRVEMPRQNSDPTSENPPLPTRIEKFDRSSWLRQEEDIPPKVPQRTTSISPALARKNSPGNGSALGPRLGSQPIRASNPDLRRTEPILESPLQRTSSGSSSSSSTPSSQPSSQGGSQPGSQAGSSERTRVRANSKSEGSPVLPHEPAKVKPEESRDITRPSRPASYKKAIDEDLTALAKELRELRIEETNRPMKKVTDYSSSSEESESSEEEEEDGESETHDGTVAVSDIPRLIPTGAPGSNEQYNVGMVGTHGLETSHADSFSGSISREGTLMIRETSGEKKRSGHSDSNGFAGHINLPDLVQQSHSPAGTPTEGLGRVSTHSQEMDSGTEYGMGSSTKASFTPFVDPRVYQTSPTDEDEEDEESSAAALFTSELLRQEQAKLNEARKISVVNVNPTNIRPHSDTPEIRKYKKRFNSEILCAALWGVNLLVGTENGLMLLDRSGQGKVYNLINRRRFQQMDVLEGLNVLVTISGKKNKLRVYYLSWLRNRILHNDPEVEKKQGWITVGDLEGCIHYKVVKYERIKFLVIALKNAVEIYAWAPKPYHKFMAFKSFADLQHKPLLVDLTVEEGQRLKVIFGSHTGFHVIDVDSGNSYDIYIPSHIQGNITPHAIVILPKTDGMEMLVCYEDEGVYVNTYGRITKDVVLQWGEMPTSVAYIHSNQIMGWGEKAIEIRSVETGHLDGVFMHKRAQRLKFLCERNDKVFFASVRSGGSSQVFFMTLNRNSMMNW
Dual specificity mitogen-activated protein kinase kinase 5 (Homo sapiens), sequence (Q13163 whole entry): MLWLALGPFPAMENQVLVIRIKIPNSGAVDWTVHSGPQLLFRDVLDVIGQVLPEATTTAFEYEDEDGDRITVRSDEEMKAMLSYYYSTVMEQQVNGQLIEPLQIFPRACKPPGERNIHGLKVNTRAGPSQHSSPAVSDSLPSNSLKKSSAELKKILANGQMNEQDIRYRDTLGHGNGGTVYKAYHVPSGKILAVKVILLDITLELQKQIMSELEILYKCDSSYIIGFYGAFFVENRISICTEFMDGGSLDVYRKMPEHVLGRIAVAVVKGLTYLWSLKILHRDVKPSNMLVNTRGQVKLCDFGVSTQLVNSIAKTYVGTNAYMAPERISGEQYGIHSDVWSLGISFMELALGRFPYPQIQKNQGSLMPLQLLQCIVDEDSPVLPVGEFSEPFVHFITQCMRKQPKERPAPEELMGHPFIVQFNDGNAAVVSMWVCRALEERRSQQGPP
Testis-specific serine/threonine-protein kinase 3 (Homo sapiens), sequence (Q96PN8 whole entry): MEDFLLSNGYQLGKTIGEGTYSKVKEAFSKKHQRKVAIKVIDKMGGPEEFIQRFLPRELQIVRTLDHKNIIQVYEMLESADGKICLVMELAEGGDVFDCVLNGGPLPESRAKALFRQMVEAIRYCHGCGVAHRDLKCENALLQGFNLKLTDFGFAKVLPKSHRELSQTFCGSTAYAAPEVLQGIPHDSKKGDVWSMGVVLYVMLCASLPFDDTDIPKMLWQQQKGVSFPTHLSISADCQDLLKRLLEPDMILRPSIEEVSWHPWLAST

Question: For `OCCOCc1cn(CCNc2nonc2/C(=N/O)Nc2ccc(F)c(Br)c2)nn1`, which k el [1] is on record?
Answer: 0.00205 s⁻¹

Question: What about the fraction unbound [2] of the same compound?
Answer: 0.0968

Question: And the Activity (Rattus norvegicus)?
Answer: Non-Toxic

Question: What about the Activity (HCT-116 [3]) of the same compound?
Answer: 62.6%

Question: And the Activity (HCT-116 [4])?
Answer: 3.84%

Question: And the Activity (HCT-116 [5])?
Answer: 7.31%

Question: And the Activity (HCT-116 [6])?
Answer: 8.83%

Question: What about the inhibition (Mus musculus) of the same compound?
Answer: inactive

Question: What about the inhibition [7] of the same compound?
Answer: inactive

Question: And the inhibition [8]?
Answer: inactive

Question: And the inhibition [9]?
Answer: inactive

Question: What about the inhibition [10] of the same compound?
Answer: inactive

Question: What about the inhibition [11] of the same compound?
Answer: inactive

Question: What about the inhibition [12] of the same compound?
Answer: inactive

Question: And the inhibition [13]?
Answer: inactive

Question: What about the inhibition [14] of the same compound?
Answer: inactive

Question: And the inhibition [15]?
Answer: inactive

Question: What about the inhibition [16] of the same compound?
Answer: inactive

Question: And the inhibition [17]?
Answer: inactive

Question: What about the inhibition [18] of the same compound?
Answer: inactive

Question: And the inhibition [19]?
Answer: inactive

Question: And the inhibition [20]?
Answer: inactive

Question: What about the inhibition [21] of the same compound?
Answer: inactive

Question: And the inhibition [22]?
Answer: inactive

Question: And the inhibition [23]?
Answer: inactive

Question: What about the inhibition [24] of the same compound?
Answer: inactive

Question: And the inhibition [25]?
Answer: inactive

Question: What about the inhibition [26] of the same compound?
Answer: inactive

Question: And the inhibition [27]?
Answer: inactive

Question: And the inhibition [28]?
Answer: inactive

Question: And the inhibition [29]?
Answer: inactive

Question: What about the inhibition [30] of the same compound?
Answer: inactive

Question: What about the inhibition [31] of the same compound?
Answer: inactive

Question: What about the inhibition [32] of the same compound?
Answer: inactive

Question: What about the inhibition [33] of the same compound?
Answer: inactive

Question: What about the inhibition [34] of the same compound?
Answer: inactive

Question: What about the inhibition [35] of the same compound?
Answer: inactive

Question: And the inhibition [36]?
Answer: inactive

Question: And the inhibition [37]?
Answer: inactive

Question: And the inhibition [38]?
Answer: inactive

Question: And the inhibition [39]?
Answer: inactive

Question: And the inhibition [40]?
Answer: inactive

Question: What about the inhibition [41] of the same compound?
Answer: inactive
